Laboratory results from ChEMBL document CHEMBL1146351, “Synthesis and biological evaluation of thiazolidine-2-one 1,1-dioxide as inhibitors of Escherichia coli beta-ketoacyl-ACP-synthase III (FabH)” (Bioorg Med Chem Lett, 2007).
≈ marks a conversion by molar mass, not a printed value. Calls of active or inactive are those of the source. No cut-off for these calls is given here.

Columns and labels:
[1] = molecular target: T1, 3-oxoacyl-[acyl-carrier-protein] synthase 3 (Escherichia coli, UniProt C3TDZ2); test: Inhibition of Escherichia coli FabH
T1 sequence (C3TDZ2 whole entry): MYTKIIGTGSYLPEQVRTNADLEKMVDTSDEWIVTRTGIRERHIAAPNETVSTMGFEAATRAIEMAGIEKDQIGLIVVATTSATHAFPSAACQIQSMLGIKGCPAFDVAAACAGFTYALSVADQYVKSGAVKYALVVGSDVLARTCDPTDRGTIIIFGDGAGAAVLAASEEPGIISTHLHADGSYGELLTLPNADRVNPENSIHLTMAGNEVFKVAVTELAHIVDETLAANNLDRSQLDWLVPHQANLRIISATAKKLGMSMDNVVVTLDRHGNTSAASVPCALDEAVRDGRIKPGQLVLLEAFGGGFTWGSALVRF

[2] = test system: Plasmodium falciparum; test: Antimalarial activity against Plasmodium falciparum D6; assay type: functional, organism-based
[3] = molecular target: T2, Mycobacterial beta-ketoacyl-[acyl-carrier-protein] synthase III (Mycobacterium tuberculosis) (UniProt P9WNG3); test: Inhibition of Mycobacterium tuberculosis FabH at 100 uM
T2 sequence (whole entry): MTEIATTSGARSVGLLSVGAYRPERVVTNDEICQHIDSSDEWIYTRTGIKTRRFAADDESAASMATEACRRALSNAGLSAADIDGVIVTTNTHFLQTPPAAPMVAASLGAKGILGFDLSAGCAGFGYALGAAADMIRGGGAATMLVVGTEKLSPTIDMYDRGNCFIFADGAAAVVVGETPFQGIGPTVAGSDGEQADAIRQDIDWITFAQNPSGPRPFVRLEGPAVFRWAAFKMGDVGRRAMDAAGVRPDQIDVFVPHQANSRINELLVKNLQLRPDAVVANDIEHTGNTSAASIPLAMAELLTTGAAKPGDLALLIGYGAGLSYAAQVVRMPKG

[4] = molecular target: T3, Beta-ketoacyl-ACP-synthase III (Plasmodium falciparum) (UniProt O77078); test: Inhibition of Plasmodium falciparum D6 KASIII at 100 uM
T3 sequence (whole entry): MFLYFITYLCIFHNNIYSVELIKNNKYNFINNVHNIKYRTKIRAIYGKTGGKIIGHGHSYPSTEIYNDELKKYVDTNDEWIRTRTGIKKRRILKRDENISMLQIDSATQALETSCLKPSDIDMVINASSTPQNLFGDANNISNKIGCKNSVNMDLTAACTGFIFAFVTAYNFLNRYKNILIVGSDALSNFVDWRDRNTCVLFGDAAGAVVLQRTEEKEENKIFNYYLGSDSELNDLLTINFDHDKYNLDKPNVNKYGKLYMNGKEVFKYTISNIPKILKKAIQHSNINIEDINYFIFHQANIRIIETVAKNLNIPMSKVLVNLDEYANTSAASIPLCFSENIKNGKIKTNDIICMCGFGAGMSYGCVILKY

[5] = test system: Escherichia coli; test: Antibacterial activity against Escherichia coli; assay type: functional
[6] = test system: Escherichia coli; test: Antibacterial activity against Escherichia coli expressing FabH; assay type: functional

| SMILES | IC50 [1] | IC50 [2] | Activity [3] | Activity [4] | MIC [5] | MIC [6] |
| --- | --- | --- | --- | --- | --- | --- |
| CCCN1CCSC1=S | > 100 µM | > 100 µM | inactive | inactive | – | – |
| S=C1SCCN1CCc1ccccc1 | > 100 µM | 55.5 µM | inactive | inactive | – | – |
| S=C1SCCN1Cc1ccc(Oc2ccc(C3CCCC3)cc2)cc1 | 17.7 µM | 5.3 µM | inactive | inactive | – | – |
| CN1CCSC1=S | > 100 µM | > 100 µM | inactive | inactive | – | – |
| CCCN1CCS(=O)(=O)C1=O | > 100 µM | > 100 µM | inactive | inactive | – | – |
| S=C1SCCN1Cc1ccccc1 | > 100 µM | 61.6 µM | inactive | inactive | – | – |
| O=C1SCCN1Cc1ccc(Oc2ccc(C3CCCC3)cc2)cc1 | 14.4 µM | 11.1 µM | inactive | inactive | – | – |
| S=C1SCCN1Cc1cccnc1 | > 100 µM | 73.4 µM | inactive | inactive | – | – |
| O=C1SCCN1Cc1ccc(Oc2ccccc2)cc1 | 10.9 µM | 67.1 µM | inactive | inactive | – | – |
| O=C1N(Cc2ccc(Oc3ccc(C4CCCC4)cc3)cc2)CCS1(=O)=O | 2.4 µM | 10.8 µM | inactive | inactive | – | – |
| O=C1N(CCc2ccccc2)CCS1(=O)=O | 1.9 µM | 21.6 µM | inactive | inactive | 16.5 µg/mL (≈ 69 µM) | – |
| O=C1N(Cc2ccccc2)CCS1(=O)=O | 1.1 µM | 67.6 µM | inactive | inactive | 6.6 µg/mL (≈ 29.3 µM) | 6.6 µg/mL (≈ 29.3 µM) |
| O=C1SCCN1Cc1cccnc1 | 20.7 µM | 78.4 µM | inactive | inactive | – | – |
| S=C1SCCN1Cc1ccc(Oc2ccccc2)cc1 | > 100 µM | 55.6 µM | inactive | inactive | – | – |
| CN1CCS(=O)(=O)C1=O | > 100 µM | > 100 µM | inactive | inactive | – | – |
| O=C1SCCN1Cc1ccccc1 | 13.7 µM | 90.9 µM | inactive | inactive | – | – |
| O=C1N(Cc2ccc(Oc3ccccc3)cc2)CCS1(=O)=O | 0.9 µM | 49.4 µM | inactive | inactive | – | – |
